Results from PubChem BioAssay AID1259407 (Chemical Carcinogenesis Research Information System (CCRIS), 2018).
Activity calls are given as the source filed them. The rule behind the calls is not given here.

System: CCRIS mutagenicity, Ames/micronucleus/aberration tests
Test: CCRIS mutagenicity studies

Structure (SMILES): Nc1ncnc2c1nc(-c1ccc([N+](=O)[O-])cc1)n2-c1ccc([N+](=O)[O-])cc1
- mutagenic call (Test System: AMES SALMONELLA TYPHIMURIUM, Strain/Indicator: TA98(1,8-DNP), Metabolic Activation: NONE, Method: PREINCUBATION): active; positive
- mutagenic call (Test System: AMES SALMONELLA TYPHIMURIUM, Strain/Indicator: TA98(1,8-DNP), Metabolic Activation: RAT, LIVER, S-9, PCB, Method: PREINCUBATION): active; positive
- mutagenic call (Test System: AMES SALMONELLA TYPHIMURIUM, Strain/Indicator: TA98(NR), Metabolic Activation: NONE, Method: PREINCUBATION): active; positive
- mutagenic call (Test System: AMES SALMONELLA TYPHIMURIUM, Strain/Indicator: TA98(NR), Metabolic Activation: RAT, LIVER, S-9, PCB, Method: PREINCUBATION): active; positive
- mutagenic call (Test System: AMES SALMONELLA TYPHIMURIUM, Strain/Indicator: TA98, Metabolic Activation: NONE, Method: PREINCUBATION): active; positive
- mutagenic call (Test System: AMES SALMONELLA TYPHIMURIUM, Strain/Indicator: TA98, Metabolic Activation: RAT, LIVER, S-9, PCB, Method: PREINCUBATION): active; positive
- mutagenic call (Test System: AMES SALMONELLA TYPHIMURIUM, Strain/Indicator: TA100(1,8-DNP), Metabolic Activation: NONE, Method: PREINCUBATION): inactive; negative
- mutagenic call (Test System: AMES SALMONELLA TYPHIMURIUM, Strain/Indicator: TA100(1,8-DNP), Metabolic Activation: RAT, LIVER, S-9, PCB, Method: PREINCUBATION): inactive; negative
- mutagenic call (Test System: AMES SALMONELLA TYPHIMURIUM, Strain/Indicator: TA100(NR), Metabolic Activation: NONE, Method: PREINCUBATION): inactive; negative
- mutagenic call (Test System: AMES SALMONELLA TYPHIMURIUM, Strain/Indicator: TA100(NR), Metabolic Activation: RAT, LIVER, S-9, PCB, Method: PREINCUBATION): inactive; negative
- mutagenic call (Test System: AMES SALMONELLA TYPHIMURIUM, Strain/Indicator: TA100, Metabolic Activation: NONE, Method: PREINCUBATION): active; positive
- mutagenic call (Test System: AMES SALMONELLA TYPHIMURIUM, Strain/Indicator: TA100, Metabolic Activation: RAT, LIVER, S-9, PCB, Method: PREINCUBATION): active; positive
- mutagenic call (Test System: AMES SALMONELLA TYPHIMURIUM, Strain/Indicator: YG1020, Metabolic Activation: NONE, Method: PREINCUBATION): active; positive
- mutagenic call (Test System: AMES SALMONELLA TYPHIMURIUM, Strain/Indicator: YG1020, Metabolic Activation: RAT, LIVER, S-9, PCB, Method: PREINCUBATION): active; positive
- mutagenic call (Test System: AMES SALMONELLA TYPHIMURIUM, Strain/Indicator: YG1021, Metabolic Activation: NONE, Method: PREINCUBATION): active; positive
- mutagenic call (Test System: AMES SALMONELLA TYPHIMURIUM, Strain/Indicator: YG1021, Metabolic Activation: RAT, LIVER, S-9, PCB, Method: PREINCUBATION): active; positive
- mutagenic call (Test System: AMES SALMONELLA TYPHIMURIUM, Strain/Indicator: YG1024, Metabolic Activation: NONE, Method: PREINCUBATION): active; positive
- mutagenic call (Test System: AMES SALMONELLA TYPHIMURIUM, Strain/Indicator: YG1024, Metabolic Activation: RAT, LIVER, S-9, PCB, Method: PREINCUBATION): active; positive
- mutagenic call (Test System: AMES SALMONELLA TYPHIMURIUM, Strain/Indicator: YG1025, Metabolic Activation: NONE, Method: PREINCUBATION): active; positive
- mutagenic call (Test System: AMES SALMONELLA TYPHIMURIUM, Strain/Indicator: YG1025, Metabolic Activation: RAT, LIVER, S-9, PCB, Method: PREINCUBATION): active; positive
- mutagenic call (Test System: AMES SALMONELLA TYPHIMURIUM, Strain/Indicator: YG1026, Metabolic Activation: NONE, Method: PREINCUBATION): active; positive
- mutagenic call (Test System: AMES SALMONELLA TYPHIMURIUM, Strain/Indicator: YG1026, Metabolic Activation: RAT, LIVER, S-9, PCB, Method: PREINCUBATION): active; positive
- mutagenic call (Test System: AMES SALMONELLA TYPHIMURIUM, Strain/Indicator: YG1029, Metabolic Activation: NONE, Method: PREINCUBATION): active; positive
- mutagenic call (Test System: AMES SALMONELLA TYPHIMURIUM, Strain/Indicator: YG1029, Metabolic Activation: RAT, LIVER, S-9, PCB, Method: PREINCUBATION): active; positive

Structure (SMILES): C[n+]1c2cc(N)ccc2cc2ccc(N)cc21 (tested in a mixture with another compound)
- mutagenic call (Test System: AMES SALMONELLA TYPHIMURIUM, Strain/Indicator: TA98, Metabolic Activation: NONE, Method: STANDARD PLATE): inactive; negative
- mutagenic call (Test System: AMES SALMONELLA TYPHIMURIUM, Strain/Indicator: TA98, Metabolic Activation: RAT, LIVER, S-9, AROCLOR 1254, Method: STANDARD PLATE): active; positive
- mutagenic call (Test System: AMES SALMONELLA TYPHIMURIUM, Strain/Indicator: TA1537, Metabolic Activation: NONE, Method: STANDARD PLATE): inactive; negative
- mutagenic call (Test System: AMES SALMONELLA TYPHIMURIUM, Strain/Indicator: TA1537, Metabolic Activation: RAT, LIVER, S-9, AROCLOR 1254, Method: STANDARD PLATE): active; positive
- mutagenic call (Test System: AMES SALMONELLA TYPHIMURIUM, Strain/Indicator: TA1538, Metabolic Activation: NONE, Method: STANDARD PLATE): inactive; negative
- mutagenic call (Test System: AMES SALMONELLA TYPHIMURIUM, Strain/Indicator: TA1538, Metabolic Activation: RAT, LIVER, S-9, AROCLOR 1254, Method: STANDARD PLATE): active; positive
- mutagenic call (Test System: CHINESE HAMSTER OVARY, Strain/Indicator: CHO-K1-BH4 (HGPRT), Metabolic Activation: RAT, LIVER, S-9, AROCLOR, Method: SUSPENSION/PLATE): active; positive

Structure (SMILES): CCn1cc(C(=O)O)c(=O)c2cc(F)c(N3CCNCC3)nc21
- mutagenic call (Test System: AMES SALMONELLA TYPHIMURIUM, Strain/Indicator: HISG428, Metabolic Activation: NONE, Method: STANDARD PLATE): inactive; negative
- mutagenic call (Test System: AMES SALMONELLA TYPHIMURIUM, Strain/Indicator: TA92, Metabolic Activation: NONE, Method: STANDARD PLATE): active; positive
- mutagenic call (Test System: AMES SALMONELLA TYPHIMURIUM, Strain/Indicator: TA102, Metabolic Activation: NONE, Method: STANDARD PLATE): active; positive
- mutagenic call (Test System: AMES SALMONELLA TYPHIMURIUM, Strain/Indicator: TA103, Metabolic Activation: NONE, Method: STANDARD PLATE): active; positive
- mutagenic call (Test System: AMES SALMONELLA TYPHIMURIUM, Strain/Indicator: TA104, Metabolic Activation: NONE, Method: STANDARD PLATE): inactive; negative
- mutagenic call (Test System: AMES SALMONELLA TYPHIMURIUM, Strain/Indicator: TA2638, Metabolic Activation: NONE, Method: STANDARD PLATE): active; positive
- mutagenic call (Test System: AMES SALMONELLA TYPHIMURIUM, Strain/Indicator: TA2661, Metabolic Activation: NONE, Method: STANDARD PLATE): inactive; negative
- mutagenic call (Test System: AMES SALMONELLA TYPHIMURIUM, Strain/Indicator: TA2662, Metabolic Activation: NONE, Method: STANDARD PLATE): active; positive
- mutagenic call (Test System: AMES SALMONELLA TYPHIMURIUM, Strain/Indicator: TA2678, Metabolic Activation: NONE, Method: STANDARD PLATE): inactive; negative
